Results as given in PMC7549094 (Journal of Medicinal Chemistry, 2020).

Columns and labels:
hr Beta1 = hr Beta1 (Homo sapiens, UniProt P08588); assay: receptor profile (Table S4); format: binding
[1] = microsomal extraction ratio, 1 h incubation in microsomes
[2] = molecular target: T1, purified L. donovani proteasome (Leishmania donovani, UniProt A0A3Q8IIY4+A0A3S7XA80); assay: chymotrypsin-like activity of purified L. donovani proteasome; format: biochemical; conditions: half-maximum inhibition of chymotrypsin-like activity of purified L. donovani proteasome; mean, n = 4 technical replicates
T1 sequence (A0A3Q8IIY4 100-302): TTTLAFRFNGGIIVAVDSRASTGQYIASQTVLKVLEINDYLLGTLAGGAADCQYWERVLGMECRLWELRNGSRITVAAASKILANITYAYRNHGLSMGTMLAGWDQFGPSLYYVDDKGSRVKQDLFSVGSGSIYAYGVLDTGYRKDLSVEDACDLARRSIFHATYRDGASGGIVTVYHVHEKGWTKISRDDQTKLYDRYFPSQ
T1 sequence (A0A3S7XA80 1-206): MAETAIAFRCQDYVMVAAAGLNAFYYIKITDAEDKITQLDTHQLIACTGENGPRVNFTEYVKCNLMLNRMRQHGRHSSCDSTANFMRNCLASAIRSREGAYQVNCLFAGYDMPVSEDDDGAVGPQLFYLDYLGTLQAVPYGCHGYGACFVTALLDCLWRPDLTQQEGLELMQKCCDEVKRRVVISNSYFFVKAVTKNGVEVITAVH

hr CB1 antag = hr CB1 antag (Homo sapiens, UniProt P21554); assay: receptor profile (Table S4); format: biochemical
hr Ad3 = molecular target: T2, hr Ad3 (Homo sapiens, UniProt P0DMS8); assay: receptor profile (Table S4); format: binding
T2 sequence (P0DMS8 1-318): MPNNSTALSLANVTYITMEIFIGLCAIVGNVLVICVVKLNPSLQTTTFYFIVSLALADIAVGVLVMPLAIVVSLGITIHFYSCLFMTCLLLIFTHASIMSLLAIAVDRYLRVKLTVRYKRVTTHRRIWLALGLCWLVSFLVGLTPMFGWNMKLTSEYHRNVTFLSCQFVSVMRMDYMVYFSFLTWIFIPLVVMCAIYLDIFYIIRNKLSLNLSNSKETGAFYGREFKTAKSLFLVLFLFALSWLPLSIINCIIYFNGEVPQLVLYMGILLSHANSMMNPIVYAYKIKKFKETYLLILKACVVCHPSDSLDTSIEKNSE

[3] = Balb/C mice, 20 mg/kg PO; dose-normalized
Experimental: In Vivo PK Studies in Mice.
The solution was filtered using a 0.45 m syringe filter before dosing. Two male Balb/c mice were administered 1 intravenously via the lateral tail
vein at 5 mg/kg with a dose volume of 2.0 mL/kg. 1 was also formulated in a suspension of 0.5%
methylcellulose with 0.5% Tween 80 (0.5% MC/0.5% Tw80) in water at 2.5 mg/mL. A group of mice
(n=3) were administered 1 orally via gavage at 20 mg/kg with a dose volume of 8.0 mL/kg.
The mouse blood samples were centrifuged to separate plasma and the plasma samples were frozen at -
In Vivo PK Studies in Rats.
Two male Wistar rats were administered
1 intravenously via the lateral tail vein at 3 mg/kg with a dose volume of 1.0 mL/kg. 1 was also formulated
in a suspension of 0.5% methylcellulose with 0.5% Tween 80 (0.5% MC/0.5% Tw80) in water at 2.0
mg/mL. The second group of rats (n=3) were administered 1 orally via gavage at 10 mg/kg in suspension
with a dose volume of 5.0 mL/kg. Six blood samples of 100 μL each were collected serially from each
animal via the saphenous vein up to 24 hours after dosing. The rat blood samples were centrifuged to
separate plasma and the plasma samples were frozen at -20°C until analysis.
In Vivo PK Studies in Dogs.
The solution was filtered using a 0.45 m syringe filter before dosing. Three male Beagle dogs were administered 1 intravenously via saphenous
vein at 0.3 mg/kg with a dose volume of 0.1 mL/kg. 1 was also formulated in a suspension of 0.5%
methylcellulose with 0.5% Tween 80 (0.5%MC/0.5% Tween 80) in water at 1.0 mg/mL. The second
group of male dogs (n=2) were administered 1- orally via gavage at 1.0 mg/kg with a dose volume of 1.0
mL/kg. Seven blood samples of 250 µL each were collected serially from each animal via the jugular vein
The dog blood samples were centrifuged to separate plasma and the plasma
samples were frozen at -20 °C until analysis.

hr ERa ag = hr ERa ag (Homo sapiens, UniProt P03372); assay: receptor profile (Table S4); format: biochemical
hr 5-HT2A ag = hr 5-HT2A ag (Homo sapiens, UniProt P28223); assay: receptor profile (Table S4); format: biochemical
[4] = molecular target: wild-type (PSMB4^WT) L. tarentolae proteasome (Leishmania tarentolae, UniProt A0A640KTY7+A0A640KW57); assay: chymotrypsin-like activity of purified wild-type L. tarentolae proteasome; format: biochemical; conditions: n = 3 technical replicates
hr 5-HTT = hr 5-HTT (Homo sapiens, UniProt P31645); assay: receptor profile (Table S4); format: binding
hr M2 antag = molecular target: T3, hr M2 antag (Homo sapiens, UniProt P08172); assay: receptor profile (Table S4); format: biochemical
T3 sequence (P08172 1-466): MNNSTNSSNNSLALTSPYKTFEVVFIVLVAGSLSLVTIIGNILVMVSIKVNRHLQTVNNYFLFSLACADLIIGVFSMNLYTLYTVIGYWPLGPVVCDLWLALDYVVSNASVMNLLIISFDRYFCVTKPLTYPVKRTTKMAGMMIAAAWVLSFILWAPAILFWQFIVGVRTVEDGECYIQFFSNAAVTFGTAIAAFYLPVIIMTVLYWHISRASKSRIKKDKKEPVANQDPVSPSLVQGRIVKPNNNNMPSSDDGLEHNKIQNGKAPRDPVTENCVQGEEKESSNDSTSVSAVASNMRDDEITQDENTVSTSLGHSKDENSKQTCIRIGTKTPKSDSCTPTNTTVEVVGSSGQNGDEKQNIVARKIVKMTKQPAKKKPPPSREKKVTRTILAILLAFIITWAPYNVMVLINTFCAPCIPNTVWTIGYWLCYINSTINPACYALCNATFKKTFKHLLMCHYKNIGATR

[5] = mouse plasma protein binding; format: in vitro ADME
Nav1.5 = Nav1.5 (Homo sapiens, UniProt Q14524); assay: receptor profile (Table S4); conditions: human
hr Nav1.5 = hr Nav1.5 (Homo sapiens, UniProt Q14524); assay: receptor profile (Table S4); conditions: hr Nav1.5
hr Mot = hr Mot (Homo sapiens, UniProt O43193); assay: receptor profile (Table S4); format: binding
[6] = pharmacokinetics, summary across preclinical species; format: in vivo, rat, dog, cynomolgus monkey

Sequence of hr CB1 antag (P21554 whole entry): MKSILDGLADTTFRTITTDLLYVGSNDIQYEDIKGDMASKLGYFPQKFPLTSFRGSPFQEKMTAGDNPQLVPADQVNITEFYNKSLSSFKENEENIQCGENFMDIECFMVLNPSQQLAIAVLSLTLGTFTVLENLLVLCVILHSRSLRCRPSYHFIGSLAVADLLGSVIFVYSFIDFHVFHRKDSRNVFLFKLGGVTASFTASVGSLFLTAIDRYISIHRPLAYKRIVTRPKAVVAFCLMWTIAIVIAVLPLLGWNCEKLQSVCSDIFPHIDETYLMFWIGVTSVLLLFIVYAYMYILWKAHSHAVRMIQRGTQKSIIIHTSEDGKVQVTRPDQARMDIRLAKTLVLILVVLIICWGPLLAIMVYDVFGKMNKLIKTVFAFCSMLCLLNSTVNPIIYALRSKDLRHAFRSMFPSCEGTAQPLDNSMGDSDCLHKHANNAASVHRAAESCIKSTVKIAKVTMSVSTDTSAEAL
Sequence of hr Mot (O43193 whole entry): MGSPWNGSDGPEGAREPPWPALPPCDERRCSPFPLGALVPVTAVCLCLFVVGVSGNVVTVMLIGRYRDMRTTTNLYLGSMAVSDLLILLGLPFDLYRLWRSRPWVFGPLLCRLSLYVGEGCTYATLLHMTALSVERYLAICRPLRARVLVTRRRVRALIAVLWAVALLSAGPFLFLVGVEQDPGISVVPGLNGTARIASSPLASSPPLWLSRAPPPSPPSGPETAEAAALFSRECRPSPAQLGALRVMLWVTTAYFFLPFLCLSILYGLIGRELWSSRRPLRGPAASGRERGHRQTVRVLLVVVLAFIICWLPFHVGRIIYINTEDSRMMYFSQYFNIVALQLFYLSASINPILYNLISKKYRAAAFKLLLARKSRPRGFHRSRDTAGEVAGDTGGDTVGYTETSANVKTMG
Sequence of hr Beta1 (P08588 whole entry): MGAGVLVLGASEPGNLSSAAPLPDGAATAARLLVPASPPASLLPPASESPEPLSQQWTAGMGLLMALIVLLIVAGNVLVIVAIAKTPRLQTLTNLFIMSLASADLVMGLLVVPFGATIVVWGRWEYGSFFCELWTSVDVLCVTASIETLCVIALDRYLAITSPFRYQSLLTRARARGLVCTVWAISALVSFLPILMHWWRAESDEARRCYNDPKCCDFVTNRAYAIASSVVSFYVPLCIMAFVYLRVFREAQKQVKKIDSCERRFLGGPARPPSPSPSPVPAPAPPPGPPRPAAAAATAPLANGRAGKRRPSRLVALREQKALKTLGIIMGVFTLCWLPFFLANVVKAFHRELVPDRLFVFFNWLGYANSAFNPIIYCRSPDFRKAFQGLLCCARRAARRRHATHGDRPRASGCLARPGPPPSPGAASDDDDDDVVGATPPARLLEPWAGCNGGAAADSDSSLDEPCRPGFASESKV
Sequence of hr ERa ag (P03372 whole entry): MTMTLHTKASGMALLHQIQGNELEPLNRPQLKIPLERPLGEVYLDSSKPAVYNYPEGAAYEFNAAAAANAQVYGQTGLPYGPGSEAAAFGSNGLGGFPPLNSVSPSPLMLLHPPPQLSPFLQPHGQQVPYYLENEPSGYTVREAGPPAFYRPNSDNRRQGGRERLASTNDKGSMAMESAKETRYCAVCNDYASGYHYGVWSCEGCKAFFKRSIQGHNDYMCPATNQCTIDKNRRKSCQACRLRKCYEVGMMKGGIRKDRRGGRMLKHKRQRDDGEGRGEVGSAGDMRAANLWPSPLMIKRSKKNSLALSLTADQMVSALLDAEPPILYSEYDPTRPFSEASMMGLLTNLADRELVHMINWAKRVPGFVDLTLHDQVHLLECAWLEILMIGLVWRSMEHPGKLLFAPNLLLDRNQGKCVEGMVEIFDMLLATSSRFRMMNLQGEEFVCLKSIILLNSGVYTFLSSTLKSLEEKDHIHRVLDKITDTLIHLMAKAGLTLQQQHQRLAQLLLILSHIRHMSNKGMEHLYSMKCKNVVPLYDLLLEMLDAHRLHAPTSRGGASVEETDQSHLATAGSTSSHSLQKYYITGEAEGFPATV
Sequence of hr 5-HTT (P31645 whole entry): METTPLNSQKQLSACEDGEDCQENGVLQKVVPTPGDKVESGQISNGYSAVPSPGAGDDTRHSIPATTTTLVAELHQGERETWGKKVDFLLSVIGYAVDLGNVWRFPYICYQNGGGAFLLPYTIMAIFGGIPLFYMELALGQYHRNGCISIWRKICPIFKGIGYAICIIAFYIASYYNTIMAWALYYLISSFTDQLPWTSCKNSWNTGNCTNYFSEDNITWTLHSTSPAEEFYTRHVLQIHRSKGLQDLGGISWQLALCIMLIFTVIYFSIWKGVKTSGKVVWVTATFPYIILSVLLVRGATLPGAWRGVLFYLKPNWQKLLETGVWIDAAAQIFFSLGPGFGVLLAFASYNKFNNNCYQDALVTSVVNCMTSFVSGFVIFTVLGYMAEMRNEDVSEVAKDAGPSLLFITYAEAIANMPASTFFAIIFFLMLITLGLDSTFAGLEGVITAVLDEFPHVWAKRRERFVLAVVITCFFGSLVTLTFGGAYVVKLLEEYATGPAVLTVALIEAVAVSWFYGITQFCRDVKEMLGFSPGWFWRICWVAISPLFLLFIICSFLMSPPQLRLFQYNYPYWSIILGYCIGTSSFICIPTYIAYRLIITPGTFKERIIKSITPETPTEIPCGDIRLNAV
Sequence of hr 5-HT2A ag (P28223 whole entry): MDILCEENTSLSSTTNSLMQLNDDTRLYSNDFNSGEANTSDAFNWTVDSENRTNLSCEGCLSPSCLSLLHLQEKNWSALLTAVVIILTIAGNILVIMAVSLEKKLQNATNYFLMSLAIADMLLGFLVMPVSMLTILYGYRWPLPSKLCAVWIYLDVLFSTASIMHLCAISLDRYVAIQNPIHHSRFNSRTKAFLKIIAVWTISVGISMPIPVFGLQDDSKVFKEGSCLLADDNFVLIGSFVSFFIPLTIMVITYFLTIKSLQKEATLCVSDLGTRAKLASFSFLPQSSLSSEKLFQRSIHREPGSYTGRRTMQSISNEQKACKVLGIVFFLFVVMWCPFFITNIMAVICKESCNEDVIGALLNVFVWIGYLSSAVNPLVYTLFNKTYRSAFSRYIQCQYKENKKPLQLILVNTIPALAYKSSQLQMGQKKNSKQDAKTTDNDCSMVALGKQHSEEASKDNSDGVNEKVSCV
Sequence of Nav1.5 (Q14524 whole entry): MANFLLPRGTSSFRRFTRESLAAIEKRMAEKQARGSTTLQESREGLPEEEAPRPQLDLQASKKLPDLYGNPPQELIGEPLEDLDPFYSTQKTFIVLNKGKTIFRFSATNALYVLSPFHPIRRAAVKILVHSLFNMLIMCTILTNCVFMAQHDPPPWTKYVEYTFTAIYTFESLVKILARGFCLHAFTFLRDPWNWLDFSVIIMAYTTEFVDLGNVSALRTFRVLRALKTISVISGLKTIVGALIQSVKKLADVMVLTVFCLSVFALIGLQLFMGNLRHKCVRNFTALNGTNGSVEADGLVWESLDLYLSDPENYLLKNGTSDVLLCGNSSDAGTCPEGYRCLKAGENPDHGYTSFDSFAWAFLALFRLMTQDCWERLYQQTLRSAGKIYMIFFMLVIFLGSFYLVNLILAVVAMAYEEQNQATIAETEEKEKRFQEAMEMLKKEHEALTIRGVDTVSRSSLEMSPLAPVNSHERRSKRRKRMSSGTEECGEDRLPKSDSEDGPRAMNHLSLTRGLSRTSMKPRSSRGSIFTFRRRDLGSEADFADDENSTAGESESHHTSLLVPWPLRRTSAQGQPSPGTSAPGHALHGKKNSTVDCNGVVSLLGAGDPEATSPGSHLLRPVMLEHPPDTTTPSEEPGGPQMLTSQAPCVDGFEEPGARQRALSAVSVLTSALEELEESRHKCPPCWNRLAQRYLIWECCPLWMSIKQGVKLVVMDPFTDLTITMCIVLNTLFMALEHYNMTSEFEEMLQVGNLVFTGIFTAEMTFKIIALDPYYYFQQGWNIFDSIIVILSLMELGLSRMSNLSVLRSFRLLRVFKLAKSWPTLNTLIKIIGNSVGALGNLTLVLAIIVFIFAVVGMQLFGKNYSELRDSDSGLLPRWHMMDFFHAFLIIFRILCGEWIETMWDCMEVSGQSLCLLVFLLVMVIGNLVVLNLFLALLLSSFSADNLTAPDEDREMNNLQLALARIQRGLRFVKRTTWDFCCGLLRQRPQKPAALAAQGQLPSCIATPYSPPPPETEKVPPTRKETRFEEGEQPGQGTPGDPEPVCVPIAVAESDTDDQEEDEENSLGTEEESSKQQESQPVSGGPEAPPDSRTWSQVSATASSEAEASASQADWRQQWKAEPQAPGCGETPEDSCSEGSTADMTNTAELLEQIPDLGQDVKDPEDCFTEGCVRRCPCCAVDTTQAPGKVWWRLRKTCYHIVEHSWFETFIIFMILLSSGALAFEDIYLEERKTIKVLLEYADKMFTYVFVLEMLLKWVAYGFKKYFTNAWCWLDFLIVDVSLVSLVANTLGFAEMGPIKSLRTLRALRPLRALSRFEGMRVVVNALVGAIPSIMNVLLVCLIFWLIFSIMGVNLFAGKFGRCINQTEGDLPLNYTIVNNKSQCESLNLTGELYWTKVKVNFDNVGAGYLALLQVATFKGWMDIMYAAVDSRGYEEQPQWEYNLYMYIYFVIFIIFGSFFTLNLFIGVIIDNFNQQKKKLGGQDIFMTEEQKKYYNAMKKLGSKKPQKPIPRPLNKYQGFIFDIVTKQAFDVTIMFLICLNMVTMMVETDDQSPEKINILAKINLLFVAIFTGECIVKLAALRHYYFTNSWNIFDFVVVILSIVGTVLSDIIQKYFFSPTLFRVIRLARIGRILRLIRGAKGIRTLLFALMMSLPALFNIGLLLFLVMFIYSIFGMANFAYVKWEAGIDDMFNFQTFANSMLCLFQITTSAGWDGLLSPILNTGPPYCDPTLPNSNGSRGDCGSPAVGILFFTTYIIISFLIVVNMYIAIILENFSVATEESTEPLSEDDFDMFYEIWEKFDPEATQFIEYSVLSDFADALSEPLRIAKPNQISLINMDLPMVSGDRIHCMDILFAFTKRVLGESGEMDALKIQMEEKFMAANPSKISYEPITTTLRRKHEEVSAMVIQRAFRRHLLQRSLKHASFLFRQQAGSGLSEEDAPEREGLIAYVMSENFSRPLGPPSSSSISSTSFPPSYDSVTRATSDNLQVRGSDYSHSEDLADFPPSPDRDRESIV

Cc1nc(C)c(C(=O)Nc2ccc(F)c(-c3nc4ncc(-c5ncccc5C)cn4n3)c2)o1 [compound 1, N-(4-Fluoro-3-(6-(3-methylpyridin-2-yl)-[1,2,4]triazolo[1,5-a]pyrimidin-2-yl)phenyl)-2,4-dimethyloxazole-5-carboxamide]
EC50/IC50 (hr Beta1; hr Beta1): > 30 µM | inhibition at 10 µM (hr Beta1; read-out: % inh/act @ 10 µM): 6% | inhibition at 30 µM (hr Beta1; read-out: % inh/act @ 30 µM): 10% | ER rat [1]: < 0.18 | IC50 [2]: 0.04 µM | EC50/IC50 (hr CB1 antag; hr CB1 antag): > 30 µM | inhibition at 10 µM (hr CB1 antag; read-out: % inh/act @ 10 µM): -47% | inhibition at 30 µM (hr CB1 antag; read-out: % inh/act @ 30 µM): -57% | EC50/IC50 (hr Ad3; hr Ad3): > 30 µM | inhibition at 10 µM (hr Ad3; read-out: % inh/act @ 10 µM): 8% | inhibition at 30 µM (hr Ad3; read-out: % inh/act @ 30 µM): 37% | DN AUC PO [3]: 7.5 µM·h | DN Cmax PO [3]: 800 nM | % inh/act @ 10 µM (r BZD): 7% | % inh/act @ 30 µM (r BZD): 7% | EC50/IC50 (hr ERa ag; hr ERa ag): > 30 µM | inhibition at 10 µM (hr ERa ag; read-out: % inh/act @ 10 µM): 7% | inhibition at 30 µM (hr ERa ag; read-out: % inh/act @ 30 µM): 15% | EC50/IC50 (hr 5-HT2A ag; hr 5-HT2A ag): > 30 µM | inhibition at 10 µM (hr 5-HT2A ag; read-out: % inh/act @ 10 µM): -7% | inhibition at 30 µM (hr 5-HT2A ag; read-out: % inh/act @ 30 µM): -10% | IC50 [4]: 0.05 µM | EC50/IC50 (hr 5-HTT; hr 5-HTT): > 30 µM | inhibition at 10 µM (hr 5-HTT; read-out: % inh/act @ 10 µM): 17% | inhibition at 30 µM (hr 5-HTT; read-out: % inh/act @ 30 µM): 12% | EC50/IC50 (hr M2 antag; hr M2 antag): > 30 µM | inhibition at 10 µM (hr M2 antag; read-out: % inh/act @ 10 µM): 16% | inhibition at 30 µM (hr M2 antag; read-out: % inh/act @ 30 µM): 31% | fraction unbound [5]: 0.056 | inhibition at 10 µM (Nav1.5): 8% | inhibition at 30 µM (Nav1.5): 3% | EC50/IC50 (hr Nav1.5): > 50 µM | EC50/IC50 (hr Mot; hr Mot): > 30 µM | inhibition at 10 µM (hr Mot; read-out: % inh/act @ 10 µM): -3% | inhibition at 30 µM (hr Mot; read-out: % inh/act @ 30 µM): 3% | bioavailability ([6]; Balb/c (mouse), Wistar (rat), beagle (dog), rat, dog, cynomolgus monkey, in vivo, po, across the tested species, conventional suspension formulations): 27 to 67% | half-life ([6]; male, Balb/c (mouse), Wistar (rat), beagle (dog), rat, dog, cynomolgus monkey, in vivo, across species following IV administration, read-out: plasma terminal half-life): 3 to 10 h | CL as % of hepatic blood flow ([6]; mouse, rat, and monkey, IV, fumarate salt): 2–17 % of hepatic blood flow
